# Source: patent US20070292385A1, “Phospholipase Inhibitors Localized in the Gastrointestinal Lumen” (priority 2004, published 2007)
# pIC50: −log10 of the molar value. Where two headings read alike, the source gives them in different places.
# Legend:
# [1] = test system: PL A2; settings: cited from earlier work
# [2] = test system: Caco-2 monolayers; assay: Caco-2 permeability study; settings: apical to basolateral
# [3] = pharmokinetic study, IV and oral; assay type: in vivo, mice; settings: for AUC(0-inf) / Cmax / Tmax / half-life: mouse, plasma; for half-life: read-out: t½ (converted)
# Method: This example characterized ILY-4001 [2-(3-(2-amino-2-oxoacetyl)-1-(biphenyl-2-ylmethyl)-2-methyl-1H-indol-4-yloxy)acetic acid], alternatively referred to herein as methyl indoxam, with respect to activity, as determined by IC50 assay (Example 1B-1), with respect to cell absorbtion, as determined by in-vitro Caco-2 assay (Example 1B-2) and with respect to bioavailability, as determined using in-vivo mice studies (Example 1B-3).
# Bioavailability was calculated as a ratio of AUC-oral/AUC-intravenous (IV). To determine this ratio, a first set of subject animals were given a measured intravenous (IV) dose of ILY-4001, followed by a determination of ILY-4001 levels in the blood at various time points after administration (e.g., 5 minutes through 24 hours). Another second set of animals was similarly dosed using oral administration, with blood levels of ILY-4001 determined at various time points after administration (e.g., 30 minutes through 24 hours). The level of ILY-4001 in systemic circulation were determined by generally accepted methods (for example as described in Evans, G., A Handbook of Bioanalysis and Drug Metabolism. Boca Raton, CRC Press (2004)). Specifically, […]/mass spectrometry/mass spectrometry (LC/MS/MS) analytical methods were used to quantitate plasma concentrations of ILY-4001 after oral and intravenous administration. Pharmacokinetic parameters that were measured include Cmax, AUC, tmax, t1/2, and F (bioavailability).
# In this procedure, ILY-4001 was dosed at 3 mg/kg IV and 30 mg/kg oral. […] This indicated about a 72% level of non-absorption of ILY-4001 from the GI tract into systemic circulation.
# [4] = target: T1, Porcine PLA2 IB (Sus scrofa, UniProt P00592); assay: continuous fluorimetric assay for PLA2 activity (PPyrPG vesicles); assay type: biochemical; settings: 37° C.
# T1 construct: purchased
# Description: A continuous fluorimetric assay for PLA2 activity described in the literature was used to determine IC (Leslie, C C and Gelb, M H (2004) Methods in Molecular Biology “Assaying phospholipase A2 activity”, 284: 229-242, Singer, A G, et al. (2002) Journal of Biological Chemistry “Interfacial kinetic and binding properties of the complete set of human and mouse groups I, II, V, X, and XII secreted phospholipases A2”, 277: 48535-48549, Bezzine, S, et al. (2000) Journal of Biological Chemistry “Exogenously added human group X secreted phospholipase A(2) but not the group IB, IIA, and V enzymes efficiently release arachidonic acid from adherent mammalian cells”, 275: 3179-3191) and references therein.
# Generally, this assay used a phosphatidylglycerol (or phosphatidylmethanol) substrate with a pyrene fluorophore on the terminal end of the sn-2 fatty acyl chain. […] The effect of a given inhibitor and inhibitor concentration on any given phospholipase can be determined. […]
# In this example, the procedure was performed as follows: • 1. […] The fluorescence was read using an excitation of 342 nm and an emission of 395 nm.
# In this example, the IC50 was calculated using the BioDataFit 1.02 (Four Parameter Model) software package. […]
# [5] = in-vivo study on high fat/high sucrose diabetogenic diet (Example 10); parameters: species or system C57BL/6 mice; settings: for fasting glucose levels: low dose 25 mg/kg/day
# Method: ILY-4001 (FIG. 5) was evaluated as a PLA2 IB inhibitor in a set of experiments using wild-type mice and genetically deficient PLA2 (−/−) mice (also referred to herein as PLA2 knock-out (KO) mice). In these experiments, wild-type and PLA2 (−/−) mice were maintained on a high fat/high sucrose diet, details of which are described below.
# Briefly, four groups were set up, each having six mice. Three of the groups included six wild-type PLA2 (+/+) mice in each group (eighteen mice total), and one of the groups included six genetically deficient PLA2 (−/−) mice. One of the wild-type groups was used as a wild-type control group, and was not treated with ILY-4001. The other two wild-type groups were treated with ILY-4001—one group at a lower dose (indicated as “L” in Table 1) of 25 mg/kg/day, and the other at a higher dose (indicated as “H” in Table 1) of 90 mg/kg/day. The group comprising the PLA2 (−/−) mice was used as a positive control group.
# The experimental protocol used in this study was as follows. The four groups of mice, including wild type and isogenic PLA2 (−/−) C57BL/J mice were acclimated for three days on a low fat/low carbohydrate diet. After the three day acclimation phase, the animals were fasted overnight and serum samples taken to establish baseline plasma cholesterol, triglyceride, and glucose levels, along with baseline body weight. The mice in each of the treatment groups were then fed a high fat/high sucrose diabetogenic diet (Research Diets D12331). 1000 g of the high fat/high sucrose D12331 diet was composed of casein (228 g), DL-methionine (2 g), maltodextrin 10 (170 g), sucrose (175 g), soybean oil (25 g), hydrogenated coconut oil (333.5 g), mineral mix S10001 (40 g), sodium bicarbonate (10.5 g), potassium citrate (4 g), vitamin mix V10001 (10 g), and choline bitartrate (2 g). This diet was supplemented with ILY-4001 treatments such that the average daily dose of the compound ingested by a 25 g mouse was: 0 mg/kg/day (wild-type control group and PLA2 (−/−) control group); 25 mg/kg/day (low-dose wild-type treatment group), or 90 mg/kg/day (high-dose wild-type treatment group). The animals were maintained on the high fat/high sucrose diet, with the designated ILY-4001 supplementation, for a period of ten weeks.
# Body weight measurements were taken for all animals in all treatment and control groups at the beginning of the treatment period and at 4 weeks and 10 weeks after initiation of the study. (See Example 10A). Blood draws were also taken at the beginning of the treatment period (baseline) and at 4 weeks and 10 weeks after initiation of the study, in order to determine fasting glucose (See Example 10B). Cholesterol and triglyceride levels were determined from blood draws taken at the beginning of the treatment (baseline) and at ten weeks. (See Example 10C).
# [6] = test system: Caco-2 monolayers
# [7] = low and high doses (25 and 90 mg/kg/day), 10 weeks
# T1 sequence (P00592 23-146): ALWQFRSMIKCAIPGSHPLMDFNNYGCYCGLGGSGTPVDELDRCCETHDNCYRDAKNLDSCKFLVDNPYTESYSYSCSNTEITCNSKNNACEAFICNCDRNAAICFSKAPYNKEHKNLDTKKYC
compound,measurement,setting,value
CCC1=C(CC(N)=O)c2cc(OCCCP(=O)(O)O)ccc2C1Nc1ccccc1 (stereo not shown),IC50,[1],sub μM range
"Cc1c(C(=O)C(N)=O)c2c(OCC(=O)O)cccc2n1Cc1ccccc1-c1ccccc1 [ILY-4001, 2-(3-(2-amino-2-oxoacetyl)-1-(biphenyl-2-ylmethyl)-2-methyl-1H-indol-4-yloxy)acetic acid]",apparent permeability,[2],around 1.66×10^−7 cm/s
same,AUC(0-inf),"[3]; iv, 3 mg/kg",2760 ng·h/mL
same,Cmax,"[3]; iv, 3 mg/kg",3170 ng/mL
same,Tmax,"[3]; iv, 3 mg/kg",0.083 h
same,AUC(0-t),"[3]; mouse, plasma, iv, 3 mg/kg; read-out: AUC 0-24)",2790 ng·h/mL
same,half-life,"[3]; iv, 3 mg/kg",1.03 h
same,AUC(0-inf),"[3]; oral, 30 mg/kg",5730 ng·h/mL
same,Cmax,"[3]; oral, 30 mg/kg",2290 ng/mL
same,Tmax,"[3]; oral, 30 mg/kg",1 h
same,AUC(0-t),"[3]; mouse, plasma; oral, 30 mg/kg; read-out: AUC 0-24)",5950 ng·h/mL
same,half-life,"[3]; oral, 30 mg/kg",1.25 h
same,pIC50,[4],7.21
same,body weight gain compared to wild-type control group,"[5]; 25 mg/kg/d and 90 mg/kg/d in diet, week 4 and week 10",significantly reduced
same,plasma levels of cholesterol,[5]; [7],substantially reduced
same,plasma levels of triglycerides,[5]; [7],substantially reduced
same,fasting glucose levels,[5]; week four,moderately beneficial effect
same,fasting glucose levels,[5]; week ten,beneficial effect was not observed
Lucifer Yellow,apparent permeability,[6],around 2.82×10^−7+/−0.37×10^−7 cm/s
